# Measurements taken from patent US9403829B2, “Pharmaceutical compositions of 7-(6-(2-hydroxypropan-2-yl)pyridin-3-yl)-1-((trans)-4-methoxycyclohexyl)-3,4-dihydropyrazino [2,3-b]pyrazin-2(1H)-one, a solid form thereof and methods of their use” (Signal Pharmaceuticals, LLC, priority 2011, dated 2016).
# Where two headings read alike, the source gives them in different places.
# Assays:
# [1] = Phase 1 crossover pharmacokinetic study of tablet and capsule formulations, single oral dose; assay type: in vivo, human; conditions: male, human, plasma, oral; for AUC(0-t): read-out: AUC0-24
# Method: Certain formulations provided herein were evaluated in a Phase 1, open-label, randomized, crossover study.
# On Day 1 of Period 1, following an overnight fast of at least 8 hours, subjects were randomized to one of the following 3 sequences to receive Treatment A, B or C (Table 30).
# In Treatment A, one 20-mg reference Compound A API-in-capsule was administered orally after at least 8 hour fast with 240 mL of non-carbonated, room temperature water. In Treatment B, one 20-mg tablet of Compound A (Tablet Formulation XIII) was administered under fasted conditions. In Treatment C, four 5-mg tablets of Compound A (Tablet Formulation XIV) were administered under fasted conditions. The 20-mg tablet and four 5-mg tablets were administered orally after at least 8 hour fast with 240 mL of non-carbonated, room temperature water.
# For each period, serial blood samples were collected before dosing (zero hour) and at 0.5, 1, 1.5, 2, 2.5, 3, 4, 6, 8, 12, 24, 48, 72, and 96 hours after dosing. Plasma concentrations of Compound A were determined for determining PK parameters, such as […], AUC0-∞, Cmax, Tmax, t1/2, CL/F, and Vz/F for Compound A. Plasma PK parameters were calculated using non compartmental methods. Analyses of variance (ANOVA) were performed on the natural log-transformed AUC0-t, AUC0-∞, and Cmax for Compound A. The geometric mean ratios (test/reference) and their 90% confidence intervals were also calculated. For Tmax, non parametric analysis was used to produce median differences.
# [2] = Phase 1 food effect study (Part 2), single 20-mg oral dose of Compound A tablet, fed vs fasted; assay type: in vivo, human; conditions: for CL/F / AUC(0-inf) / Cmax / half-life / AUC(0-t) / Vd/F: geometric mean; for Tmax / AUC(0-inf) / Cmax / half-life / AUC(0-t) / Vd/F: male, human, plasma, 20 mg; for AUC(0-t): read-out: AUC0-24; for Vd/F: read-out: Vz/F
# Method: The primary objectives of this study are: to characterize the biotransformation and excretion of Compound A following a single 20 mg oral dose of Compound A capsule containing a microtracer of [^14C]-Compound A solution in healthy male subjects (Part 1) and to evaluate the effect of a high-fat meal on the pharmacokinetics (PK) of Compound A following a single oral 20-mg dose of Compound A tablet (Part 2).
# Part 2 design: Part 2 will be a 2-period crossover study; in Period 1, subjects (n=12) will be randomized to receive either an oral 20 mg dose of Compound A tablet (Treatment B) under fed (n=6) or fasted (n=6) conditions. In Period 2, subjects will receive Treatment B under converse conditions based on treatment assignment in Period 1. After screening, subjects (n=12) eligible for participation in the study will return to the study center on Day −1 for baseline assessments. Subjects who continue to be qualified for participation in the study will be randomized and enrolled in the study on the morning of Day 1. Subjects (n=6) will be enrolled and randomized to receive Treatment B under fed or fasted conditions on the morning of Day 1 after fasting for at least 8 hours. Fed subjects will be served a standard high fat meal breakfast, or its equivalent, that must be consumed within 30 minutes from serving. Dosing must occur 30 minutes (+5 minutes) after serving a subject breakfast. All subjects (fed and fasted) will fast (not to consume any food) until 4 hours post dose. Water will be allowed during the fasting period. Subjects will be domiciled at the study center from Day −1 until the morning of Day 5 of each period. Subjects will be discharged from the study center on the morning of Day 5 upon satisfactory safety review and completion of study-related procedures. Safety and tolerability data will be monitored and collected following each dosing period. Periods 1 and 2 will be separated by a washout period of at least 7 days (no more than 10 days) from prior dose to the next dose. In certain instances, a longer washout may be acceptable if previously agreed to.
# Serial blood samples (10 mL) will be collected at predose (0 hour) and at 0.5, 1, 2, 3, 6, 12, 24, 48, 72 and 96 hours post dose for the determination of plasma concentrations of Compound A and the O-desmethyl metabolite of Compound A. Safety will be monitored throughout the study; safety evaluations will include AE reporting, physical examinations, vital sign measurements, ECG, and clinical laboratory safety tests. Concomitant medications will be assessed and recorded throughout the study as well. In addition, during the subjects' stay-in-the clinic (i.e., confinement period), fasting plasma glucose levels will be monitored as part of the clinical laboratory safety tests. For Parts 1 and 2, all subjects will return to the clinic within 7 to days after the last dose for follow up safety assessments. In the event that a subject discontinues prematurely from the study, every reasonable effort should be made (and documented) to ensure that all procedures and evaluations scheduled for the follow-up visit are performed at the time of discontinuation or a follow-up visit should be scheduled within 7 to days from the discontinuation day.
# Part 2 dosing: In Part 2, subjects will fast overnight for at least 8 hours prior to Compound A administration. On the morning of Day 1, each subject will receive a 20-mg tablet of Compound A orally. Subjects randomized to receive Compound A under fed conditions will be a served a standard high fat meal (breakfast).
# The standard high fat meal or its equivalent must be consumed within minutes of serving. Dosing must occur 30 minutes (+5 minutes) after serving the meal. The tablet will be administered with approximately 240 mL of non-carbonated, room temperature water. After dosing, subjects will continue to fast until 4 hours after dosing.
# [3] = upon administration of about 20 mg of Compound A (protocol of Section 6.5.1)
# [4] = Treatment A: one 20-mg Compound A API-in-capsule, fasted, n = 18, geometric mean
# [5] = fed vs fasted, healthy adult males, 20 mg Compound A
# [6] = po, Fasted (n = 11), single 20-mg oral dose of Compound A tablet
# [7] = po, Fed (n = 11, high fat meal), single 20-mg oral dose of Compound A tablet
smiles,measurement,setting,value
"CC(C)(O)c1ccc(-c2cnc3c(n2)N([C@H]2CC[C@H](O)CC2)C(=O)CN3)cn1 [O-Desmethyl metabolite, 1-((1r,4r)-4-hydroxycyclohexyl)-7-(6-(2-hydroxypropan-2-yl)pyridin-3-yl)-3,4-dihydropyrazino[2,3-b]pyrazin-2(1H)-one]",Cmax,[1]; [3],503 ng/mL
same,Tmax,[1]; [3],3 h
same,half-life,[1]; [3],14.3 h
same,AUC(0-t),[1]; [3],7480 ng·h/mL
same,AUC(0-inf),"[1]; upon administration of about 20 mg of Compound A (protocol of Section 6.5.1), read-out: AUC∞",11900 ng·h/mL
same,half-life,[1]; [4],14.3 h
same,Tmax,"[1]; Treatment A: one 20-mg Compound A API-in-capsule, fasted, healthy adult males, n = 18, median",3 h
same,Cmax,[1]; [4],503 ng/mL
same,AUC(0-t),[1]; [4],7480 ng·h/mL
same,AUC(0-inf),"[1]; Treatment A: one 20-mg Compound A API-in-capsule, fasted, n = 18, geometric mean, read-out: AUC0-∞",11900 ng·h/mL
same,CL/F,"[2]; Fasted (n = 11), single 20-mg oral dose of Compound A tablet",2.0 L/h
same,CL/F,"[2]; Fed (n = 11, high fat meal), single 20-mg oral dose of Compound A tablet",2.0 L/h
same,decrease in Cmax with a high fat meal,[2]; [5],~17%
same,increase in overall exposure (AUCinf) with a high fat meal,[2]; [5],~3%
same,Tmax,"[2]; oral, fed vs fasted, healthy adult males, 20 mg Compound A, read-out: delay in Tmax with a high fat meal",3 h
same,Tmax,"[2]; po, Fasted (n = 11), single 20-mg oral dose of Compound A tablet, healthy adult males, median, read-out: Tmax",3 h
same,AUC(0-inf),[2]; [6],9830 ng·h/mL
same,Cmax,[2]; [6],425 ng/mL
same,half-life,[2]; [6],14.8 h
same,AUC(0-t),[2]; [6],6400 ng·h/mL
same,Vd/F,[2]; [6],34.7 L
same,AUC(0-inf),[2]; [7],10100 ng·h/mL
same,Cmax,[2]; [7],364 ng/mL
same,half-life,[2]; [7],14.9 h
same,AUC(0-t),[2]; [7],6270 ng·h/mL
same,Vd/F,[2]; [7],42.6 L
same,Tmax,"[2]; po, Fed (n = 11, high fat meal), single 20-mg oral dose of Compound A tablet, median, read-out: Tmax",6 h
